Test results as given in ChEMBL document CHEMBL1146189, “Antiproliferation and apoptosis induced by C-glycosides in human leukemia cancer cells” (Bioorg Med Chem Lett, 2006).
Calls of active or inactive are those of the source. No cut-off for these calls is given here.

What was measured:
HL-60 [1] = experiment: Antiproliferative activity against human HL60 cells by MTT assay; assay type: functional, cell-based
HL-60 [2] = experiment: Induction of apoptosis in human HL60 cells; assay type: functional, cell-based
[3] = Homo sapiens, HL-60, read-out: IC50

SMILES | IC50 (HL-60 [1]; hl-60) | IC50 (HL-60 [1]; [3]) | Activity (HL-60 [2])
CCC[C@@H]1O[C@H](CO)[C@@H](O)[C@H](O)[C@H]1O | Not Active |  | 
CC(C)(C)C[C@H]1O[C@H](COCc2ccccc2)[C@@H](OCc2ccccc2)[C@H](OCc2ccccc2)[C@H]1O |  | 12.1 µM | 
CCC[C@@H]1O[C@H](COCc2ccccc2)[C@@H](OCc2ccccc2)[C@H](OCc2ccccc2)[C@H]1O |  | 11.7 µM | 
O[C@@H]1[C@@H](OCc2ccccc2)[C@H](OCc2ccccc2)[C@@H](COCc2ccccc2)O[C@@H]1Cc1ccccc1 | Not Active |  | 
ClC1(Cl)[C@@H]2[C@@H](OCc3ccccc3)[C@H](OCc3ccccc3)[C@@H](COCc3ccccc3)O[C@@H]21 |  | 46.4 µM | 
CC(C)C[C@@H]1O[C@H](COCc2ccccc2)[C@@H](OCc2ccccc2)[C@H](OCc2ccccc2)[C@@H]1O | Not Active |  | 
OCCC[C@@H]1O[C@H](COCc2ccccc2)[C@@H](OCc2ccccc2)[C@H](OCc2ccccc2)[C@H]1O |  | 19.3 µM | 
OC[C@H]1O[C@@H](Cc2ccccc2)[C@H](O)[C@@H](O)[C@@H]1O | Not Active |  | 
CCC[C@@H]1O[C@H](COC)[C@@H](OC)[C@H](OC)[C@H]1O | Not Active |  | 
C[C@H]1O[C@H](COCc2ccccc2)[C@@H](OCc2ccccc2)[C@H](OCc2ccccc2)[C@H]1O | Not Active |  | 
C=C[C@@H]1O[C@H](COCc2ccccc2)[C@@H](OCc2ccccc2)[C@H](OCc2ccccc2)[C@H]1O |  | 11.8 µM | 
c1ccc(COC[C@H]2O[C@H]3C[C@H]3[C@@H](OCc3ccccc3)[C@@H]2OCc2ccccc2)cc1 | Not Active |  | 
CCC[C@@H]1O[C@H](COCc2ccccc2)[C@@H](OCc2ccccc2)[C@H](OCc2ccccc2)[C@@H]1O | Not Active |  | 
C#CC[C@@H]1O[C@H](COCc2ccccc2)[C@@H](OCc2ccccc2)[C@H](OCc2ccccc2)[C@H]1O | Not Active |  | 
CC(=O)OC[C@@H]1O[C@H](COCc2ccccc2)[C@@H](OCc2ccccc2)[C@H](OCc2ccccc2)[C@H]1OCc1ccccc1 | Not Active |  | 
CCC[C@@H]1O[C@H](COCc2ccccc2)[C@H](OCc2ccccc2)[C@H](OCc2ccccc2)[C@H]1O | Not Active |  | 
CCCCCCCCCCCCCCCOC[C@H]1O[C@@H](CCC)[C@H](O)[C@@H](OCCCCCCCCCCCCCCC)[C@@H]1OCCCCCCCCCCCCCCC | Not Active |  | 
C=CC[C@@H]1O[C@H](COCc2ccccc2)[C@@H](OCc2ccccc2)[C@H](OCc2ccccc2)[C@H]1OC(C)=O |  | 26.9 µM | 
CCCCCCCCCCCCCCCOC[C@H]1O[C@H](CCC)[C@H](O)[C@@H](OCCCCCCCCCCCCCCC)[C@@H]1OCCCCCCCCCCCCCCC | Not Active |  | 

SMILES | IC50 (HL-60 [1]; hl-60) | IC50 (HL-60 [1]; [3]) | Activity (HL-60 [2])
CCCC[C@@H]1O[C@H](COCc2ccccc2)[C@@H](OCc2ccccc2)[C@H](OCc2ccccc2)[C@H]1O | Not Active |  | 
O[C@@H]1[C@@H](O)[C@H](Cc2ccccc2)O[C@H](COCc2ccccc2)[C@H]1O | Not Active |  | 
O[C@@H]1[C@@H](OCc2ccccc2)[C@H](OCc2ccccc2)[C@@H](COCc2ccccc2)O[C@H]1c1ccccc1 |  | 26.3 µM | 
CC(C)C[C@@H]1O[C@H](COCc2ccccc2)[C@@H](OCc2ccccc2)[C@H](OCc2ccccc2)[C@H]1O |  | 8.5 µM | Active
CC(C)C[C@H]1O[C@H](COCc2ccccc2)[C@@H](OCc2ccccc2)[C@H](OCc2ccccc2)[C@H]1O |  | 13.9 µM | 
c1ccc(COC[C@H]2O[C@@H]3C[C@@H]3[C@@H](OCc3ccccc3)[C@@H]2OCc2ccccc2)cc1 |  | 38.5 µM | 
C=CC[C@@H]1O[C@H](COCc2ccccc2)[C@@H](OCc2ccccc2)[C@H](OCc2ccccc2)[C@H]1O |  | 15.1 µM | Active
CC[C@H]1O[C@H](COCc2ccccc2)[C@@H](OCc2ccccc2)[C@H](OCc2ccccc2)[C@H]1O | Not Active |  | 
CCCCOC[C@H]1O[C@@H](CCC)[C@H](O)[C@@H](OCCCC)[C@@H]1OCCCC | Not Active |  | 
OC[C@H]1O[C@@H](Cc2ccccc2)[C@H](O)[C@@H](OCc2ccccc2)[C@@H]1OCc1ccccc1 |  | 20.2 µM | 
OC[C@H]1O[C@@H](Cc2ccccc2)[C@H](O)[C@@H](OCc2ccccc2)[C@@H]1O | Not Active |  | 
CCCCC[C@@H]1O[C@H](COCc2ccccc2)[C@@H](OCc2ccccc2)[C@H](OCc2ccccc2)[C@H]1O | Not Active |  | 
O[C@@H]1[C@@H](OCc2ccccc2)[C@H](OCc2ccccc2)[C@@H](COCc2ccccc2)O[C@@H]1c1ccccc1 | Not Active |  | 
C=C[C@H]1O[C@H](COCc2ccccc2)[C@@H](OCc2ccccc2)[C@H](OCc2ccccc2)[C@H]1OC(C)=O | Not Active |  | 
CCC[C@H]1O[C@H](COCc2ccccc2)[C@H](OCc2ccccc2)[C@H](OCc2ccccc2)[C@H]1O | Not Active |  | 
C=CC[C@@H]1O[C@H](COCc2ccccc2)[C@@H](OCc2ccccc2)[C@H](OCc2ccccc2)C1O (single isomer, unassigned) | Not Active |  | 
O[C@@H]1[C@@H](OCc2ccccc2)[C@H](OCc2ccccc2)[C@@H](COCc2ccccc2)O[C@H]1CC1CC1 | Not Active |  | 
O[C@@H]1[C@@H](OCc2ccccc2)[C@H](OCc2ccccc2)[C@@H](COCc2ccccc2)O[C@H]1Cc1ccccc1 |  | 8.7 µM | 
OC[C@H]1O[C@@H](Cc2ccccc2)[C@H](O)[C@@H](O)[C@@H]1OCc1ccccc1 | Not Active |  | 

Continued, in another order:

IC50 (HL-60 [1]; hl-60) | IC50 (HL-60 [1]; [3]) | SMILES | Activity (HL-60 [2])
Not Active |  | O[C@@H]1[C@@H](OCc2ccccc2)[C@H](OCc2ccccc2)[C@@H](COCc2ccccc2)O[C@]12CCCO2 | 
 | 8.4 µM | C[C@@H]1O[C@H](COCc2ccccc2)[C@@H](OCc2ccccc2)[C@H](OCc2ccccc2)[C@H]1O | 
 | 17.2 µM | O[C@@H]1[C@@H](OCc2ccccc2)[C@H](OCc2ccccc2)[C@@H](COCc2ccccc2)O[C@@H]1CC1CCCCC1 | 
Not Active |  | CC(=O)OC[C@H]1O[C@@H](Cc2ccccc2)[C@H](OC(C)=O)[C@@H](OC(C)=O)[C@@H]1OC(C)=O | 
Not Active |  | CC(C)C[C@H]1O[C@H](COCc2ccccc2)[C@H](OCc2ccccc2)[C@H](OCc2ccccc2)[C@H]1O | 
Not Active |  | CC(=O)O[C@@H]1[C@@H](OCc2ccccc2)[C@H](OCc2ccccc2)[C@@H](COCc2ccccc2)O[C@@H]1Cc1ccccc1 | 
Not Active |  | CCC[C@H]1O[C@H](COCc2ccccc2)[C@@H](OCc2ccccc2)[C@H](OCc2ccccc2)[C@@H]1O | 
 | 8.2 µM | CC[C@@H]1O[C@H](COCc2ccccc2)[C@@H](OCc2ccccc2)[C@H](OCc2ccccc2)[C@H]1O | Active
Not Active |  | CC(C)C[C@@H]1O[C@H](COCc2ccccc2)[C@H](OCc2ccccc2)[C@H](OCc2ccccc2)[C@H]1O | 
Not Active |  | C=CC[C@@H]1O[C@H](COC(C)=O)[C@@H](OC(C)=O)[C@H](OC(C)=O)[C@H]1OC(C)=O | 
 | 31.8 µM | C=CC[C@@H]1O[C@H](COCc2ccccc2)[C@@H](OCc2ccccc2)[C@H](OCc2ccccc2)C1=O | 
 | 35.3 µM | O[C@@H]1[C@@H](OCc2ccccc2)[C@H](O)[C@@H](COCc2ccccc2)O[C@H]1Cc1ccccc1 | 
 | 26.6 µM | O[C@@H]1[C@@H](O)[C@H](Cc2ccccc2)O[C@H](COCc2ccccc2)[C@H]1OCc1ccccc1 | 
 | 4.1 µM | O[C@@H]1[C@@H](OCc2ccccc2)[C@H](OCc2ccccc2)[C@@H](COCc2ccccc2)O[C@H]1CC1CCCCC1 | 
Not Active |  | CC(=O)OC[C@@H]1O[C@H](COCc2ccccc2)[C@@H](OCc2ccccc2)[C@H](OCc2ccccc2)[C@H]1OC(C)=O | 
 | 12.5 µM | CC1(C)OC[C@@H]2O[C@H](COCc3ccccc3)[C@@H](OCc3ccccc3)[C@H](OCc3ccccc3)[C@H]2O1 | Active
 | 28.2 µM | CCC[C@H]1O[C@H](COCc2ccccc2)[C@@H](OCc2ccccc2)[C@H](OCc2ccccc2)[C@H]1O | 
Not Active |  | C=CC[C@@H]1O[C@H](CO)[C@@H](O)[C@H](O)[C@H]1O | 
Not Active |  | O[C@H]1CO[C@H](COCc2ccccc2)[C@@H](OCc2ccccc2)[C@@H]1OCc1ccccc1 | 
Not Active |  | CC(C)(C)C[C@@H]1O[C@H](COCc2ccccc2)[C@@H](OCc2ccccc2)[C@H](OCc2ccccc2)[C@H]1O | 
Not Active |  | O[C@@H]1[C@@H](OCc2ccccc2)[C@H](OCc2ccccc2)[C@@H](COCc2ccccc2)O[C@@]12CCCO2 | 
Not Active |  | CC(=O)O[C@@H]1[C@@H](OCc2ccccc2)[C@H](OCc2ccccc2)[C@@H](COCc2ccccc2)O[C@H]1Cc1ccccc1 | 
Not Active |  | CCCC[C@H]1O[C@H](COCc2ccccc2)[C@@H](OCc2ccccc2)[C@H](OCc2ccccc2)[C@H]1O | 
Not Active |  | CC(C)C[C@H]1O[C@H](COCc2ccccc2)[C@@H](OCc2ccccc2)[C@H](OCc2ccccc2)[C@@H]1O | 
 | 39.3 µM | c1ccc(COC[C@H]2OCC[C@@H](OCc3ccccc3)[C@@H]2OCc2ccccc2)cc1 | 
Not Active |  | C=C[C@H]1O[C@H](COCc2ccccc2)[C@@H](OCc2ccccc2)[C@H](OCc2ccccc2)[C@H]1O | 
